# Assay results reported in publication PMC6522510 (Nature Communications, 2019).
# Tests used:
# Design in all cases: species or system AML cell lines (8); Primary HTS, single concentration about 10 uM, Cell Titer Glo viability; log10 luminescence, per cent inhibition relative to cycloheximide control
# Conditions in all cases: 72 h, relative to cycloheximide control, log10 luminescence; inhibitor
# [1] = tested on: M07e
# [2] = tested on: CMS
# [3] = tested on: MOLM-13
# [4] = tested on: ML-2
# [5] = tested on: CMK
# [6] = tested on: MV4-11
# [7] = tested on: U937
# [8] = tested on: CHRF288-11
Compound,M07e %inh [1] [%],CMS %inh [2] [%],MOLM-13 %inh [3] [%],ML-2 %inh [4] [%],CMK %inh [5] [%],MV4-11 %inh [6] [%],U937 %inh [7] [%],CHRF288-11 %inh [8] [%]
Cn1cc(C2=C(c3cn(C)c4ccc(Cl)cc34)C(=O)NC2=O)c2ccccc21 [SJ000581098-1],13.21,0.498,13.33,3.034,47.95,5.255,4.952,10.98
Cn1cc(C2=C(c3cn(C)c4ncccc34)C(=O)NC2=O)c2ccccc21 [SJ000581101-1],5.727,2.698,47.28,0.3677,41.81,0.9422,8.822,23.35
Nc1c(C(=O)c2cccc(OCCN3CCOCC3)c2)cnn1-c1ccc(F)cc1 [SJ000581103-1],6.806,-1.582,-0.4893,2.31,0.9343,1.093,7.007,-1.374
Nc1c(C(=O)c2cccc(CCS(N)(=O)=O)c2)cnn1-c1ccc(F)cc1 [SJ000581104-1],6.935,3.265,-0.2243,1.884,1.701,1.774,0.2995,-1.775
Nc1[nH]nc2nc(-c3cccs3)cc(C(F)(F)F)c12 [SJ000581105-1],8.033,2.722,17.65,1.699,-1.06,7.712,0.05414,-1.43
COc1ccccc1CCN=C1NC(=O)/C(=C/c2ccc3ncccc3c2)S1 [SJ000581106-1],24.66,4.605,8.02,10.31,41.08,10.91,6.939,4.589
Cn1cc(C2=C(Sc3ccccc3)C(=O)NC2=O)c2ccccc21 [SJ000581108-1],13.92,5.691,79.89,5.065,17.14,3.129,7.938,15.38
Cn1cc(C2=C(c3ccc4ccccc4c3)C(=O)NC2=O)c2ccccc21 [SJ000581109-1],12.46,2.57,1.67,4.34,22.8,1.463,4.798,15.54
Nc1c(C(=O)c2cccc(C(O)CO)c2)cnn1-c1ccc(F)cc1 (stereo not drawn) [SJ000581110-1],7.822,3.504,27.67,2.206,-1.427,3.101,-0.488,9.958
CC(=O)Nc1ccc2c(C3=C(c4cn(C)c5ccccc45)C(=O)NC3=O)cn(C)c2c1 [SJ000581111-1],89.33,99.23,95.13,39.48,104.7,74.04,75.9,123.6
CCNC(=O)[C@@H]1CCCN2C(=O)CC[C@H](NC(=O)[C@H](Cc3ccc(OP(=O)(O)O)cc3)NC(C)=O)C(=O)N12 [SJ000581112-1],4.13,-0.07964,0.008932,2.455,0.5327,1.373,0.08443,-7.883
Cn1cc(C2=C(c3ccsc3)C(=O)NC2=O)c2ccccc21 [SJ000581113-1],3.37,3.6,31.75,4.351,4.136,4.067,0.5485,8.413
CS(=O)(=O)N1CCC(Nc2ncc(C(=O)c3c(F)cccc3F)c(N)n2)CC1 [SJ000581114-1],7.028,2.662,68.54,1.661,18.19,0.7328,3.392,0.1318
COc1cc[nH]c1/C=C1\C(=O)Nc2ccc(F)c(I)c21 [SJ000581115-1],4.603,4.321,8.55,0.5185,-0.2359,2.865,3.766,-1.945
CC(C)(O)Cn1c(=O)c(Oc2ccc(F)cc2F)cc2cnc(NC3CCOCC3)nc21 [SJ000581116-1],10.58,-1.939,1.601,0.2616,6.636,2.584,1.398,-0.4946
Cn1c(-c2ccncc2)c(-c2ccc(F)cc2)c2ncccc21 [SJ000581117-1],6.194,0.8281,0.427,-0.3566,3.59,3.37,0.6927,26.1
CS(=O)(=O)CCc1cccc(C(=O)c2cnn(-c3ccc(F)cc3)c2N)c1 [SJ000581118-1],5.628,3.108,3.918,0.2726,3.205,2.402,3.157,-6.13
Cn1cc(C2=C(c3ccccc3[N+](=O)[O-])C(=O)NC2=O)c2ccccc21 [SJ000581119-1],28.37,101.9,15.35,6.35,89.69,44.46,6.728,24.65
CCOc1ccccc1CCN=C1NC(=O)/C(=C/c2ccc3ncccc3c2)S1 [SJ000581120-1],13.3,5.975,1.703,18.56,13.66,0.5335,6.277,-1.679
Cn1c(=O)c(Oc2ccc(F)cc2F)cc2cnc(N[C@H]3CCOC3)nc21 [SJ000581121-1],5.749,4.412,1.492,0.08921,3.547,2.632,1.362,-0.8909
Nc1c(C(=O)c2ccccc2)cnn1-c1ccc(F)cc1 [SJ000581122-1],10.33,-0.3703,2.618,1.652,1.79,-1.368,-0.682,-5.198
N#Cc1cccc(C(=O)c2cnn(-c3ccc(F)cc3)c2N)c1 [SJ000581124-1],5.547,0.5963,0.9707,1.377,1.804,-1.446,2.317,-6.686
Cn1cc(C2=C(c3cn(CCN)c4ccccc34)C(=O)NC2=O)c2ccccc21 [SJ000581125-1],2.044,4.695,2.432,0.3075,4.026,10.77,-0.6181,-0.3568
CC(=O)N[C@@H](Cc1ccc(OP(=O)(O)O)cc1)C(=O)N[C@H]1CCC(=O)N2CCC[C@@H](C(=O)NCc3cccc4ccccc34)N2C1=O [SJ000581126-1],3.709,3.071,1.087,-1.495,0.6517,0.5498,1.351,5.32
